The subject of the experiment is hENT1. The experiment is classed as cell-based, human. As to conditions: PK15-ENT1 cells.

In the case of `COc1ccc(-c2ccc3c(N4CCOC[C@@H]4C)nc(N4CCOC[C@@H]4C)nc3n2)cc1CO` [AZD8055], for the setting “AZD8055 (5 μM) combined with isomer 1a”, the “effect of AZD8055 on activity of isomer 1a” value is reported as “negligible effect on the activity of isomer 1a”. For the molecule `CO[C@H]1C[C@@H]2CC[C@@H](C)[C@@](O)(O2)C(=O)C(=O)N2CCCC[C@H]2C(=O)O[C@H]([C@H](C)C[C@@H]2CC[C@@H](O)[C@H](OC)C2)CC(=O)[C@H](C)/C=C(\C)[C@@H](O)[C@@H](OC)C(=O)[C@H](C)C[C@H](C)/C=C/C=C/C=C/1C` [Rapamycin], the “effect of rapamycin on potency of isomer 1a” value (rapamycin (5 μM) combined with isomer 1a) is recorded as “antagonizes isomer 1a inhibition of hENT1-mediated thymidine uptake”.

Source of the values: publication PMC8447900 (Chemical Science, 2021).
